Assay results reported in paper PMC6934184, “Selective DNA-PKcs inhibition extends the therapeutic index of localized radiotherapy and chemotherapy” (The Journal of Clinical Investigation, 2019).

Target: T1, LIMK2 (Homo sapiens, UniProt P53671)
T1 construct: purchased Thermo Fisher Scientific (Life Technologies) SelectScreen
Test: SelectScreen LanthaScreen
Assay type: binding
Conditions: read-out: % displacement
Summary of the method: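 NU5455 was profiled across the SelectScreen Broad panel of kinase activity and binding assays. Z'LYTE reactions such as CSF1R ran at apparent Km ATP, while the Adapta CAMK1 assay used ATP listed as 10. Values are given as percent.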

T1 sequence (P53671 whole entry): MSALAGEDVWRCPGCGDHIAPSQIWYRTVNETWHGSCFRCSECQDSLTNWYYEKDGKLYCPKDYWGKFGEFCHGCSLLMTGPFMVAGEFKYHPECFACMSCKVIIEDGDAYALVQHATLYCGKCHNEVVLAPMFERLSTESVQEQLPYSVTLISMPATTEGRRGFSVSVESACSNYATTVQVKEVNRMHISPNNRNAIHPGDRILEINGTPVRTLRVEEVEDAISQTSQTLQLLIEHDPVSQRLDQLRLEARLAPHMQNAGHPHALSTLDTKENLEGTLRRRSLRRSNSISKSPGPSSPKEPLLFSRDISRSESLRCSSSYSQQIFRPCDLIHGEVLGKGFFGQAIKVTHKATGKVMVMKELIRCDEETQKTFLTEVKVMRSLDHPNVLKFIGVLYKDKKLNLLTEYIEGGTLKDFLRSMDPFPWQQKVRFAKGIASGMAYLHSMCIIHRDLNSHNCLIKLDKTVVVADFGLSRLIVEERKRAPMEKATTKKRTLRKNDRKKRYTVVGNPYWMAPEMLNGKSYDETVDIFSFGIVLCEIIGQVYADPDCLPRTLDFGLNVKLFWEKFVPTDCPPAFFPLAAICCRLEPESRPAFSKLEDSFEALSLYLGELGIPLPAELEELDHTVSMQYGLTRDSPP

Question: For CN(C(=O)CN1CCOCC1)c1ccc2sc3c(-c4cccc5c(=O)cc(N6CC7CCC(C6)O7)oc45)cccc3c2c1 [NU5455], which inhibition at 1 µM is on record?
Answer: The inhibition at 1 µM was 1.4%.
